Entries after “also recorded” stand apart in the source; their conditions may differ. Calls of active or inactive are those of the source. No rule for the calls is given here.
Test system: CCRIS mutagenicity, Ames/micronucleus/aberration tests
Experiment: CCRIS mutagenicity studies
[1] = Test System: AMES SALMONELLA TYPHIMURIUM, Strain/Indicator: TA100, Metabolic Activation: RAT, LIVER, S-9, AROCLOR 1254, Method: STANDARD PLATE
[2] = Test System: AMES SALMONELLA TYPHIMURIUM, Strain/Indicator: TA98, Metabolic Activation: NONE, Method: STANDARD PLATE
[3] = Test System: AMES SALMONELLA TYPHIMURIUM, Strain/Indicator: TA100, Metabolic Activation: NONE, Method: STANDARD PLATE

Structure (SMILES): CC(C)(C)CC(C)(C)c1ccc(O)cc1
- mutagenic call (End Point: In vitro chromosomal aberrations, Test System: Chinese hamster lung (CHL/IU) cells, Metabolic Activation: None): inactive; negative. toxic at 0.04 mg/ml; also recorded: inactive; negative. toxic at 0.030 and 0.036 mg/ml
- mutagenic call (End Point: In vitro chromosomal aberrations, Test System: Chinese hamster lung (CHL/IU) cells, Metabolic Activation: Rat, Liver, S9, Phenobarbital and 5,6-benzoflavone): active; positive (structural changes and ploidy). toxic at 0.06 mg/ml.
- mutagenic call (Test System: AMES SALMONELLA TYPHIMURIUM, Strain/Indicator: TA98, Metabolic Activation: NONE, Method: PREINCUBATION): inactive; negative
- mutagenic call (Test System: AMES SALMONELLA TYPHIMURIUM, Strain/Indicator: TA98, Metabolic Activation: RAT LIVER S-9, PHENOBARBITAL AND BETA-NAPHTHOVLAVONE, Method: PREINCUBATION): inactive; negative
- mutagenic call (Test System: AMES SALMONELLA TYPHIMURIUM, Strain/Indicator: TA100, Metabolic Activation: NONE, Method: PREINCUBATION): inactive; negative
- mutagenic call (Test System: AMES SALMONELLA TYPHIMURIUM, Strain/Indicator: TA100, Metabolic Activation: RAT LIVER S-9, PHENOBARBITAL AND BETA-NAPHTHOFLAVONE, Method: PREINCUBATION): inactive; negative
- mutagenic call (Test System: AMES SALMONELLA TYPHIMURIUM, Strain/Indicator: TA102, Metabolic Activation: NONE, Method: PREINCUBATION): inactive; negative
- mutagenic call (Test System: AMES SALMONELLA TYPHIMURIUM, Strain/Indicator: TA102, Metabolic Activation: RAT LIVER S-9, PHENOBARBITAL AND BETA-NAPHTHOFLAVONE, Method: PREINCUBATION): inactive; negative
- mutagenic call (Test System: AMES SALMONELLA TYPHIMURIUM, Strain/Indicator: TA104, Metabolic Activation: NONE, Method: PREINCUBATION): inactive; negative
- mutagenic call (Test System: AMES SALMONELLA TYPHIMURIUM, Strain/Indicator: TA104, Metabolic Activation: RAT LIVER S-9, PHENOBARBITAL AND BETA-NAPHTHOFLAVONE, Method: PREINCUBATION): inactive; negative
- mutagenic call (Test System: AMES SALMONELLA TYPHIMURIUM, Strain/Indicator: TA1535, Metabolic Activation: NONE, Method: PREINCUBATION): inactive; negative
- mutagenic call (Test System: AMES SALMONELLA TYPHIMURIUM, Strain/Indicator: TA1535, Metabolic Activation: RAT LIVER S-9, PHENOBARBITAL AND BETA-NAPHTHOFLAVONE, Method: PREINCUBATION): inactive; negative
- mutagenic call (Test System: AMES SALMONELLA TYPHIMURIUM, Strain/Indicator: TA1537, Metabolic Activation: NONE, Method: PREINCUBATION): inactive; negative
- mutagenic call (Test System: AMES SALMONELLA TYPHIMURIUM, Strain/Indicator: TA1537, Metabolic Activation: RAT LIVER S-9, PHENOBARBITAL AND BETA-NAPHTHOFLAVONE, Method: PREINCUBATION): inactive; negative
- mutagenic call (Test System: E. COLI, Strain/Indicator: WP2UVRA/PKM101, Metabolic Activation: NONE, Method: PREINCUBATION): inactive; negative
- mutagenic call (Test System: E. COLI, Strain/Indicator: WP2UVRA/PKM101, Metabolic Activation: RAT LIVER S-9, PHENOBARBITAL AND BETA-NAPHTHOFLAVONE, Method: PREINCUBATION): inactive; negative
- mutagenic call (Test System: E. COLI, Strain/Indicator: WP2UVRA, Metabolic Activation: NONE, Method: PREINCUBATION): inactive; negative
- mutagenic call (Test System: E. COLI, Strain/Indicator: WP2UVRA, Metabolic Activation: RAT LIVER S-9, PHENOBARBITAL AND BETA-NAPHTHOFLAVONE, Method: PREINCUBATION): inactive; negative

Structure (SMILES): Cc1cc2[nH]c3cc(C)c4ccccc4c3c2c2ccccc12
- mutagenic call [1]: active; positive

Structure (SMILES): Cc1ccc([N+](=O)[O-])c2c(NCCCN(C)C)c3ccccc3nc12
- mutagenic call [2]: active; positive
- mutagenic call [3]: active; positive

Structure (SMILES): CN(C)C(=O)Oc1ccc[n+](C)c1
- mutagenic call (Test System: AMES SALMONELLA TYPHIMURIUM, Strain/Indicator: TA98, Metabolic Activation: HAMSTER, LIVER, S-9, AROCLOR 1254, Method: STANDARD PLATE): inactive; negative
- mutagenic call [2]: inactive; negative
- mutagenic call (Test System: AMES SALMONELLA TYPHIMURIUM, Strain/Indicator: TA98, Metabolic Activation: RAT, LIVER, S-9, AROCLOR 1254, Method: STANDARD PLATE): inactive; negative
- mutagenic call (Test System: AMES SALMONELLA TYPHIMURIUM, Strain/Indicator: TA100, Metabolic Activation: HAMSTER, LIVER, S-9, AROCLOR 1254, Method: STANDARD PLATE): inactive; negative
- mutagenic call [3]: inactive; negative
- mutagenic call [1]: inactive; negative
- mutagenic call (Test System: AMES SALMONELLA TYPHIMURIUM, Strain/Indicator: TA1535, Metabolic Activation: HAMSTER, LIVER, S-9, AROCLOR 1254, Method: STANDARD PLATE): inactive; negative
- mutagenic call (Test System: AMES SALMONELLA TYPHIMURIUM, Strain/Indicator: TA1535, Metabolic Activation: NONE, Method: STANDARD PLATE): inactive; negative
- mutagenic call (Test System: AMES SALMONELLA TYPHIMURIUM, Strain/Indicator: TA1535, Metabolic Activation: RAT, LIVER, S-9, AROCLOR 1254, Method: STANDARD PLATE): inactive; negative
- mutagenic call (Test System: AMES SALMONELLA TYPHIMURIUM, Strain/Indicator: TA1537, Metabolic Activation: HAMSTER, LIVER, S-9, AROCLOR 1254, Method: STANDARD PLATE): inactive; negative
- mutagenic call (Test System: AMES SALMONELLA TYPHIMURIUM, Strain/Indicator: TA1537, Metabolic Activation: NONE, Method: STANDARD PLATE): inactive; negative
- mutagenic call (Test System: AMES SALMONELLA TYPHIMURIUM, Strain/Indicator: TA1537, Metabolic Activation: RAT, LIVER, S-9, AROCLOR 1254, Method: STANDARD PLATE): inactive; negative
- mutagenic call (Test System: AMES SALMONELLA TYPHIMURIUM, Strain/Indicator: TA1538, Metabolic Activation: HAMSTER, LIVER, S-9, AROCLOR 1254, Method: STANDARD PLATE): inactive; negative
- mutagenic call (Test System: AMES SALMONELLA TYPHIMURIUM, Strain/Indicator: TA1538, Metabolic Activation: NONE, Method: STANDARD PLATE): inactive; negative
- mutagenic call (Test System: AMES SALMONELLA TYPHIMURIUM, Strain/Indicator: TA1538, Metabolic Activation: RAT, LIVER, S-9, AROCLOR 1254, Method: STANDARD PLATE): inactive; negative
- mutagenic call (Test System: MOUSE LYMPHOMA, Strain/Indicator: L5178Y (TK+/TK-), Metabolic Activation: NONE, Method: SUSPENSION/PLATE): inactive; negative. reevaluation of results: negative
- mutagenic call (Test System: MOUSE LYMPHOMA, Strain/Indicator: L5178Y (TK+/TK-), Metabolic Activation: RAT, LIVER, S-9, AROCLOR 1254, Method: SUSPENSION/PLATE): active; positive. reevaluation of results: equivocal

Structure (SMILES): Cc1cc2c(c3ccc4c(O)c(O)ccc4c13)CCC2=O
- mutagenic call (Test System: AMES SALMONELLA TYPHIMURIUM, Strain/Indicator: TA100, Metabolic Activation: RAT, LIVER, MICROSOMES, 15,16-DIHYDRO-11-METHYL-17(H)-CYCLOPENTA[A] PHENANTHREN-17-ONE, Method: STANDARD PLATE): inactive; negative
- mutagenic call (Test System: AMES SALMONELLA TYPHIMURIUM, Strain/Indicator: TA100, Metabolic Activation: RAT, LIVER, MICROSOMES, BENZO[A]PYRENE, Method: STANDARD PLATE): active; positive
- mutagenic call (Test System: AMES SALMONELLA TYPHIMURIUM, Strain/Indicator: TA100, Metabolic Activation: RAT, LIVER, MICROSOMES, CLOFIBRATE, Method: STANDARD PLATE): inactive; negative
- mutagenic call (Test System: AMES SALMONELLA TYPHIMURIUM, Strain/Indicator: TA100, Metabolic Activation: RAT, LIVER, MICROSOMES, DEXAMETHASONE, Method: STANDARD PLATE): inactive; negative
- mutagenic call (Test System: AMES SALMONELLA TYPHIMURIUM, Strain/Indicator: TA100, Metabolic Activation: RAT, LIVER, MICROSOMES, ISONIAZID, Method: STANDARD PLATE): inactive; negative
- mutagenic call (Test System: AMES SALMONELLA TYPHIMURIUM, Strain/Indicator: TA100, Metabolic Activation: RAT, LIVER, MICROSOMES, PHENOBARBITONE, Method: STANDARD PLATE): inactive; negative
- mutagenic call (Test System: AMES SALMONELLA TYPHIMURIUM, Strain/Indicator: TA100, Metabolic Activation: RAT, LIVER, MICROSOMES, Method: STANDARD PLATE): inactive; negative

Structure (SMILES): NCCCNCCSP(=O)(O)O
- mutagenic call (End Point: In vivo micronucleus, Test System: Bone marrow polychromatic erythrocytes, Species: Mouse, Strain/Sex: C57BL/6J/Male, Route: Intraperitoneal): inactive; negative (significant increase in pce/nce ratio only when administered before ga

Structure (SMILES): C/C=C(\Cl)C1=C(Cl)C(=O)[C@]23C[C@H]2C(C)(C)O[C@]3(O)C1=O
- mutagenic call (Test System: AMES SALMONELLA TYPHIMURIUM, Strain/Indicator: TA97, Metabolic Activation: NONE): inactive; negative
- mutagenic call (Test System: AMES SALMONELLA TYPHIMURIUM, Strain/Indicator: TA98, Metabolic Activation: NONE): inactive; negative
- mutagenic call (Test System: AMES SALMONELLA TYPHIMURIUM, Strain/Indicator: TA100, Metabolic Activation: NONE): active; positive
- mutagenic call (Test System: AMES SALMONELLA TYPHIMURIUM, Strain/Indicator: TA102, Metabolic Activation: NONE): active; positive

Source: PubChem BioAssay AID1259407 (Chemical Carcinogenesis Research Information System (CCRIS), 2018)
